Measurements reported in ChEMBL document CHEMBL4765339, “Design, synthesis, and biological evaluation of 4-substituted-3,4-dihydrobenzo[h]quinoline-2,5,6(1H)-triones as NQO1-directed antitumor agents” (Eur J Med Chem, 2020).
Calls of active or inactive are those of the source. The calls are words filed in the database; no cut-off is given here.

Key:
[1] = tested on: HepG2; experiment: Induction of mitochondrial membrane potential loss in human HepG2 cells at 2.2 uM incubated for 48 hrs by JC-1 staining based flow cytometry analysis (reference value: 2.06 %); type: functional
[2] = tested on: HepG2; experiment: Antitumor activity against human HepG2 cells xenografted in athymic nude mouse assessed as inhibition of tumor growth administered intravenously once every 2 days for 19 days by caliper analysis; type: functional, cell-based; details: dose 10-20 mg/kg, time 19.0 day
[3] = tested on: HepG2; experiment: Induction of apoptosis in human HepG2 cells assessed as viable cells at 4.4 uM incubated for 24 hrs by annexinV-FITC and PI staining based flow cytometry analysis (reference value: 94.73 %); type: functional; details: read-out: Activity
[4] = tested on: A549; experiment: Cytotoxicity against human A549 cells assessed as reduction in cell growth pretreated for 1 hr with NQO1 inhibitor, dicoumarol followed by incubation with compound for 48 hrs by MTT assay; type: functional
[5] = tested on: HepG2; experiment: Induction of apoptosis in human HepG2 cells assessed as late apoptotic cells at 4.4 uM incubated for 24 hrs by annexinV-FITC and PI staining based flow cytometry analysis (reference value: 2.27 %); type: functional
[6] = tested on: HepG2; experiment: Induction of apoptosis in human HepG2 cells assessed as necrotic cells at 4.4 uM incubated for 24 hrs by annexinV-FITC and PI staining based flow cytometry analysis (reference value: 0.35 %); type: functional
[7] = tested on: HepG2; experiment: Induction of apoptosis in human HepG2 cells incubated for 24 hrs by annexinV-FITC and PI staining based flow cytometry analysis; type: functional, cell-based; details: dose 1.1-4.4 µM
[8] = tested on: HepG2; experiment: Induction of apoptosis in human HepG2 cells assessed as necrotic cells at 2.2 uM incubated for 24 hrs in presence of dicoumarol by annexinV-FITC and PI staining based flow cytometry analysis (reference value: 0.35 %); type: functional
[9] = Toxicity in athymic nude mouse xenografted with human HepG2 cells assessed as effect on body weight at 10 to 20 mg/kg, iv administered once every 2 days for 19 days; type: organism-based; details: in vivo, 456 h, dose 10-20 mg/kg, time 19 day
[10] = tested on: HepG2; experiment: Induction of apoptosis in human HepG2 cells assessed as late apoptotic cells at 1.1 uM incubated for 24 hrs by annexinV-FITC and PI staining based flow cytometry analysis (reference value: 2.27 %); type: functional
[11] = tested on: HepG2; experiment: Induction of cell cycle arrest in human HepG2 cells assessed as increase in accumulation at S/G2 phase incubated for 24 hrs by PI staining based flow cytometry analysis; type: functional; details: dose 0.75-3 µM
[12] = tested on: A549; experiment: Cytotoxicity against human A549 cells assessed as reduction in cell growth pretreated for 1 hr with ROS scavenger, N-acetyl cysteine followed by incubation with compound for 48 hrs by MTT assay; type: functional
[13] = tested on: HepG2; experiment: Induction of apoptosis in human HepG2 cells assessed as late apoptotic cells at 2.2 uM incubated for 24 hrs by annexinV-FITC and PI staining based flow cytometry analysis (reference value: 2.27 %); type: functional
[14] = molecular target: NAD(P)H dehydrogenase [quinone] 1 (Homo sapiens) (UniProt P15559); experiment: Substrate activity at recombinant human C-terminal His-tagged NQO1 (1 to 274 residues) expressed in Escherichia coli assessed as enzyme activity by measuring oxidation of NADPH incubated for 5 mins measured every 5 sec for 1 mins by UV-visible spectrophotometry relative to beta-lapachone
[15] = Selectivity index, ratio of GI50 for human A549 cells pretreated for 1 hr with ROS scavenger, N-acetyl cysteine followed by incubation with compound for 48 hrs to GI50 for human A549 cells measured after 48 hrs by MTT assay; type: functional
[16] = tested on: HepG2; experiment: Induction of apoptosis in human HepG2 cells assessed as viable cells at 2.2 uM incubated for 24 hrs in presence of dicoumarol by annexinV-FITC and PI staining based flow cytometry analysis (reference value: 94.73 %); type: functional; details: read-out: Activity
[17] = tested on: HepG2; experiment: Induction of apoptosis in human HepG2 cells assessed as early apoptotic cells at 1.1 uM incubated for 24 hrs by annexinV-FITC and PI staining based flow cytometry analysis (reference value: 2.65 %); type: functional
[18] = Selectivity index, ratio of GI50 for human HepG2 cells pretreated for 1 hr with NQO1 inhibitor, dicoumarol followed by incubation with compound for 48 hrs to GI50 for human HepG2 cells measured after 48 hrs by MTT assay; type: functional
[19] = tested on: HepG2; experiment: Induction of apoptosis in human HepG2 cells assessed as viable cells at 2.2 uM incubated for 24 hrs by annexinV-FITC and PI staining based flow cytometry analysis (reference value: 94.73 %); type: functional; details: read-out: Activity
[20] = tested on: HepG2; experiment: Induction of apoptosis in human HepG2 cells assessed as necrotic cells at 2.2 uM incubated for 24 hrs by annexinV-FITC and PI staining based flow cytometry analysis (reference value: 0.35 %); type: functional
[21] = tested on: HepG2; experiment: Induction of ROS generation in human HepG2 cells at 5 uM incubated for 5 hrs in presence of dicoumarol by DCFH-DA staining based flow cytometry analysis; type: functional, cell-based
[22] = tested on: HepG2; experiment: Antitumor activity against human HepG2 cells xenografted in athymic nude mouse assessed as inhibition of tumor growth at 10 mg/kg, iv administered once every 2 days for 19 days by caliper analysis relative to control; type: functional; details: 456 h, time 19 day
[23] = tested on: HepG2; experiment: Cytotoxicity against human HepG2 cells assessed as reduction in cell growth incubated for 48 hrs by MTT assay; type: functional
[24] = Selectivity index, ratio of GI50 for human A549 cells pretreated for 1 hr with NQO1 inhibitor, dicoumarol followed by incubation with compound for 48 hrs to GI50 for human A549 cells measured after 48 hrs by MTT assay; type: functional
[25] = tested on: HepG2; experiment: Induction of mitochondrial membrane potential loss in human HepG2 cells at 4.4 uM incubated for 48 hrs by JC-1 staining based flow cytometry analysis (reference value: 2.06 %); type: functional
[26] = tested on: HepG2; experiment: Induction of apoptosis in human HepG2 cells assessed as early apoptotic cells at 2.2 uM incubated for 24 hrs by annexinV-FITC and PI staining based flow cytometry analysis (reference value: 2.65 %); type: functional
[27] = molecular target: NAD(P)H dehydrogenase [quinone] 1 (Homo sapiens) (UniProt P15559); experiment: Activation of recombinant human C-terminal His-tagged NQO1 (1 to 274 residues) expressed in Escherichia coli assessed as cytochrome c reduction using menadione as substrate in presence of NADPH by spectrophotometry; details: filed as activator, dose 12.5-50 µM
[28] = tested on: HepG2; experiment: Cytotoxicity against human HepG2 cells assessed as reduction in cell growth pretreated for 1 hr with NQO1 inhibitor, dicoumarol followed by incubation with compound for 48 hrs by MTT assay; type: functional
[29] = Selectivity index, ratio of GI50 for human L02 cells to GI50 for human HepG2 cells measured after 48 hrs by MTT assay; type: toxicity; details: L02 cells and HepG2 cells, read-out: RatioGI50
[30] = Cytotoxicity against human L02 cells assessed as reduction in cell growth incubated for 48 hrs by MTT assay; type: cell-based
[31] = tested on: HepG2; experiment: Antitumor activity against human HepG2 cells xenografted in athymic nude mouse assessed as inhibition of tumor growth at 20 mg/kg, iv administered once every 2 days for 19 days by caliper analysis relative to control; type: functional; details: 456 h, time 19 day
[32] = tested on: HepG2; experiment: Induction of ROS generation in human HepG2 cells at 5 uM by DCFH-DA staining based flow cytometry analysis; type: functional, cell-based; details: time 3-5 hrs, TDE = time-dependent effect

COc1ccc(C2CC(=O)NC3=C2C(=O)C(=O)c2ccccc23)cc1O (configuration not stated)
Activity [1]: 11.03% | TGI [2]: Dose-dependent effect | viability at 4.4 µM [3]: 66.5% | GI50 [4]: 5.3 µM | Activity [5]: 17.46% | Activity [6]: 1.07% | Activity [7]: Dose-dependent effect | Activity [8]: 0.69% | Activity [9]: Non-Toxic | Activity [10]: 8.9% | Activity [11]: Dose-dependent effect | GI50 [12]: 5.48 µM | Activity [13]: 12.2% | fold change (FC) [14]: > 2 | RatioGI50 [15]: 2 | viability at 2.2 µM [16]: 81.6% | Activity [17]: 7.92% | RatioGI50 [18]: 2 | viability at 2.2 µM [19]: 76% | Activity [20]: 0.93% | Activity [21]: inactive | inhibition in vivo at 10 mg/kg [22]: 27.2% | GI50 [23]: 2.23 µM | RatioGI50 [24]: 2 | Activity [25]: 18.12% | Activity [26]: 10.85% | Activity [27]: Dose-dependent effect | GI50 [28]: 4.93 µM | selectivity ratio at 48 h [29]: 2 | GI50 at 48 h [30]: 4.36 µM | inhibition in vivo at 20 mg/kg [31]: 50.3% | Activity [32]: Tde
